US9737540B2, “Combination treatment of cancer” (ASTRAZENECA AB, priority 2011, dated 2017)
Read-outs that look alike come from different tables or passages of the source.

Experiments:
[1] = test system: LNCaP prostate cancer cells (PTEN null, androgen receptor positive); format: in vivo; details: castrated mice
[2] = test system: LNCaP prostate tumour cell line; assay: Proliferation assay, Sytox Green endpoint, live cell number after 5 days (LNCaP); format: cell-based; details: LNCaP cells; monotherapy or with MDV-3100 0.1 μM to 10 μM; n=3
Procedure: (§1) The LNCaP and VCAP prostate tumour cell lines (American Tissue Culture Collection) were routinely cultured in RMPI supplemented with 10% FCS and 2 mM L-glutamine. To determine the effect of AZD5363 and MDV-3100, either as a monotherapy or in combination, on cell growth, a proliferation assay was performed using the Sytox Green endpoint to measure live cell number after 5 days. […] Cells were then dosed with increasing concentrations of AZD5363 (0.01-1 μM), MDV-3100 (0.1-10 μM) or a combination of each agent in a 6×6 matrix format. After 5-day exposure to compound, Sytox Green nucleic acid dye (Invitrogen) diluted in TBS-EDTA (TBS=Tris-buffered saline, EDTA=ethylenediaminetetraacetic acid) buffer was added to cells at a final concentration of […] and the number of dead cells detected using an Acumen Explorer. Cells were then permeabilised by the addition of saponin (0.03% final concentration, diluted in TBS-EDTA buffer), incubated overnight and a total cell count measured. The live cell count was then determined by subtracting the number of dead cells per well from the total number of cells. […] The data is presented as % growth using the NCI formulae as follows: [(Ti-Tz)/(C-Tz)]×100 for concentrations for which Ti>/=Tz [(Ti-Tz)/Tz]×100 for concentrations for which Ti<Tz. […] Synergism of the drug combination was evaluated using a unified approach described by C. […]

[3] = test system: VCAP prostate tumour cell line; assay: Proliferation assay, Sytox Green endpoint, live cell number after 5 days (VCAP); format: cell-based; details: VCAP cells; monotherapy or with MDV-3100 0.1 μM to 10 μM; n=3
Procedure: as §1

| Compound | inhibition of tumour volume ([1]; bicalutamide monotherapy 50 mg/kg qd) | Effect on cell growth / cell death (mean % growth, FIG. 1) [2] | Effect on cell growth (mean % growth, FIG. 2) [3] | inhibition of tumour volume ([1]; AZD5363 monotherapy 100 mg/kg bd, 5 days on, 2 days off) |
| --- | --- | --- | --- | --- |
| CC(O)(CS(=O)(=O)c1ccc(F)cc1)C(=O)Nc1ccc(C#N)c(C(F)(F)F)c1 (stereo not shown) [bicalutamide, N-[4-cyano-3-(trifluoromethyl)-phenyl]-3-[(4-fluorophenyl)-sulfonyl]-2-hydroxy-2-methylpropanamide, reference compound] | 42% | – | – | – |
| NC1(C(=O)N[C@@H](CCO)c2ccc(Cl)cc2)CCN(c2ncnc3[nH]ccc23)CC1 [AZD5363, (S)-4-amino-N-(1-(4-chlorophenyl)-3-hydroxypropyl)-1-(7H-pyrrolo[2,3-d]pyrimidin-4-yl)piperidine-4-carboxamide] | – | can inhibit the growth of LNCaP cells and induce cell death as a monotherapy | can inhibit the growth of VCAP cells as a monotherapy | 56% |
